Measured values published in patent publication US7632633B2, “Method for determining the degree of protein oxidation in a skin sample using oxidized protein in stratum corneum as an indicator” (Shiseido Company, Ltd., priority 2004, dated 2009).

Legend:
[1] = tested on: stratum corneum of porcine skin; experiment: Stratum corneum water holding capacity of dry pig skin after oxidation treatment (SKINCON-200); settings: dry pig skin immersed in acrolein 0, 1, 10 and 100 mM for 3 hours; dried at humidity 50%, temperature 250° C., measured 15 minutes later
Description: (§1) Dry pig skin (Alloask, Taiho Pharmaceutical) was immersed in water for 3 days. The pig skin was removed and subjected to oxidation treatment by immersing in an acrolein solution (Tokyo Chemical Industry) at 0, 1, 10 and 100 mM for 3 hours. Acrolein oxidizes by acting on protein resulting in the formation of an aldehyde-protein adduct. Following oxidation treatment, the pig skin was rinsed with water for 1 hour. After rinsing, the pig skin was initially dried (humidity: 50%, temperature: 250° C.) in a Petri dish with the stratum corneum side facing upward followed 15 minutes later by measuring the moisture content of the stratum corneum with the SKINCON-200 (IBS).
The results of measuring the moisture content of the stratum corneum are shown in FIG. 1 as skin conductance values.

[2] = tested on: stratum corneum of black pig skin; experiment: Stratum corneum water holding capacity of black pig skin after oxidation treatment (SKINCON-200); settings: 1 hour
Description: Black pig skin was subjected to oxidation treatment for 1 hour with a 10 mM acrolein solution. After rinsing with water for 1 hour, the water was carefully wiped off, and the change in the water content of the stratum corneum over time was measured with the SKINCON-200.
Black pig skin was treated for 1 hour with 20 mM hypochlorous acid. After rinsing with water for 1 hour, the water was carefully wiped off, and the change in the water content of the stratum corneum over time was measured with the SKINCON-200.

[3] = tested on: stratum corneum of porcine skin; experiment: Stratum corneum transparency of dry pig skin after oxidation treatment (observation); settings: dry pig skin immersed in acrolein 0, 1, 10 and 100 mM for 3 hours; dried (humidity 50%, 25° C.), observed over 24 hours
Description: as §1, with “was” for “was removed and”, “25°” for “250°”, “followed” for “followed 15 minutes later”, “observation” for “measuring the moisture content”, “dried pig skin over” for “stratum corneum with”, “course of 24 hours.” for “SKINCON-200 (IBS).”

[4] = tested on: stratum corneum of human forearm skin; experiment: Stratum corneum water holding capacity of human forearm skin after occlusion treatment (SKINCON-200); format: in vivo; settings: occlusion 1 hour, 20 mM hypochlorous acid vs PBS
Description: Human forearm skin was subjected to occlusion treatment for 1 hour with PBS or 20 mM hypochlorous acid. After rinsing with water for 1 hour, the water was carefully wiped off, and the change in the water content of the stratum corneum over time was measured with the SKINCON-200.

`C=CC=O` [acrolein] was tested, and the “moisture content of the stratum corneum (skin conductance)” value [1] was “decrease in moisture content was observed that was dependent on the concentration”, the “change in the water content of the stratum corneum over time (ability to hold water)” value ([2]; 10 mM acrolein solution) was “A decrease was observed in the ability of stratum corneum of the pig skin to hold water” and the “transparency of the stratum corneum” value [3] was “transparency decreased concentration-dependently”.

With `OCl` [hypochlorous acid] the “change in the water content of the stratum corneum over time (ability to hold water)” value ([2]; 20 mM hypochlorous acid) was “A decrease was observed in the ability of stratum corneum of the pig skin to hold water” and the “change in the water content of the stratum corneum over time (water holding capacity)” value [4] was “decrease in water holding capacity”.
